Test results: ChEMBL document CHEMBL4507263, “Data for DCP probe BAY-474” (2021)

Legend:
[1] = molecular target: 5-hydroxytryptamine receptor 2C (Homo sapiens, UniProt P28335); experiment: GPCRScan assay: inhibition of 5-HT2C; parameters: radioligand conc. used [nm] 1.0 – 2.5, parental cells HEK T
[2] = molecular target: AP2-associated protein kinase 1 (Homo sapiens) (UniProt Q2M2I8); details: Compound concentration 1000.0 nM
[3] = tested on: Tyrosine-protein kinase ABL1 (Homo sapiens), P00519 [Y253F]; details: Compound concentration 1000.0 nM
[4] = molecular target: Ankyrin repeat and protein kinase domain-containing protein 1 (Homo sapiens) (UniProt Q8NFD2); details: Compound concentration 1000.0 nM
[5] = molecular target: Mitotic checkpoint serine/threonine-protein kinase BUB1 (Homo sapiens) (UniProt O43683); details: Compound concentration 1000.0 nM
[6] = molecular target: Calcium/calmodulin-dependent protein kinase type 1B (Homo sapiens) (UniProt Q6P2M8); details: Compound concentration 1000.0 nM
[7] = molecular target: Calcium/calmodulin-dependent protein kinase type II subunit delta (Homo sapiens) (UniProt Q13557); details: Compound concentration 1000.0 nM
[8] = molecular target: Peripheral plasma membrane protein CASK (Homo sapiens) (UniProt O14936); details: Compound concentration 1000.0 nM
[9] = molecular target: Cyclin-dependent kinase-like 3 (Homo sapiens) (UniProt Q8IVW4); details: Compound concentration 1000.0 nM
[10] = tested on: Epidermal growth factor receptor (Homo sapiens), P00533 [G719C]; details: Compound concentration 1000.0 nM
[11] = molecular target: Ephrin type-B receptor 3 (Homo sapiens) (UniProt P54753); details: Compound concentration 1000.0 nM
[12] = molecular target: Beta-adrenergic receptor kinase 1 (Homo sapiens) (UniProt P25098); details: Compound concentration 1000.0 nM
[13] = molecular target: Mitogen-activated protein kinase kinase kinase 2 (Homo sapiens) (UniProt Q9Y2U5); details: Compound concentration 1000.0 nM
[14] = molecular target: Dual specificity mitogen-activated protein kinase kinase 3 (Homo sapiens) (UniProt P46734); details: Compound concentration 1000.0 nM
[15] = molecular target: Myosin light chain kinase (Homo sapiens) (UniProt Q32MK0); details: Compound concentration 1000.0 nM
[16] = molecular target: Serine/threonine-protein kinase 38 (Homo sapiens) (UniProt Q15208); details: Compound concentration 1000.0 nM
[17] = molecular target: Cyclin-dependent kinase 17 (Homo sapiens) (UniProt Q00537); details: Compound concentration 1000.0 nM
[18] = molecular target: 3-phosphoinositide-dependent protein kinase 1 (Homo sapiens) (UniProt O15530); details: Compound concentration 1000.0 nM
[19] = molecular target: Phosphatidylinositol 4-phosphate 5-kinase type-1 alpha (Homo sapiens) (UniProt Q99755); details: Compound concentration 1000.0 nM
[20] = molecular target: Protein kinase C eta type (Homo sapiens) (UniProt P24723); details: Compound concentration 1000.0 nM
[21] = molecular target: Ribosomal protein S6 kinase alpha-5 (Homo sapiens) (UniProt O75582); details: Compound concentration 1000.0 nM
[22] = molecular target: Ribosomal protein S6 kinase alpha-1 (Homo sapiens) (UniProt Q15418); details: Compound concentration 1000.0 nM
[23] = molecular target: Ribosomal protein S6 kinase alpha-6 (Homo sapiens) (UniProt Q9UK32); details: Compound concentration 1000.0 nM
[24] = molecular target: Serine/threonine-protein kinase SIK1 (Homo sapiens) (UniProt P57059); details: Compound concentration 1000.0 nM
[25] = molecular target: Tyrosine-protein kinase SYK (Homo sapiens) (UniProt P43405); details: Compound concentration 1000.0 nM
[26] = molecular target: Tyrosine-protein kinase receptor Tie-1 (Homo sapiens) (UniProt P35590); details: Compound concentration 1000.0 nM
[27] = molecular target: Transient receptor potential cation channel subfamily M member 6 (Homo sapiens) (UniProt Q9BX84); details: Compound concentration 1000.0 nM
[28] = molecular target: 5-hydroxytryptamine receptor 5A (Homo sapiens) (UniProt P47898); details: Compound concentration 10.0 uM
[29] = molecular target: Sodium-dependent noradrenaline transporter (Homo sapiens) (UniProt P23975); details: Compound concentration 10.0 uM
[30] = molecular target: Death-associated protein kinase 1 (Homo sapiens) (UniProt P53355); experiment: DAPK1 (h) Millipore kinase activity assay; details: Compound concentration 1.0 uM
[31] = molecular target: Myotonin-protein kinase (Homo sapiens) (UniProt Q09013); experiment: DMPK (h) Millipore kinase activity assay; details: Compound concentration 1.0 uM
[32] = molecular target: Ephrin type-A receptor 4 (Homo sapiens) (UniProt P54764); experiment: EphA4 (h) Millipore kinase activity assay; details: Compound concentration 1.0 uM
[33] = molecular target: Serine/threonine-protein kinase NLK (Homo sapiens) (UniProt Q9UBE8); experiment: NLK (h) Millipore kinase activity assay; details: Compound concentration 1.0 uM
[34] = molecular target: Ribosomal protein S6 kinase beta-1 (Homo sapiens) (UniProt P23443); experiment: p70S6K (h) Millipore kinase activity assay; details: Compound concentration 1.0 uM
[35] = molecular target: RAC-beta serine/threonine-protein kinase (Homo sapiens) (UniProt P31751); experiment: PKBbeta (h) Millipore kinase activity assay; details: Compound concentration 1.0 uM
[36] = molecular target: Serine/threonine-protein kinase 33 (Homo sapiens) (UniProt Q9BYT3); experiment: STK33 (h) Millipore kinase activity assay; details: Compound concentration 1.0 uM
[37] = molecular target: High affinity nerve growth factor receptor (Homo sapiens) (UniProt P04629); experiment: TrkA (h) Millipore kinase activity assay; details: Compound concentration 1.0 uM
[38] = molecular target: BDNF/NT-3 growth factors receptor (Homo sapiens) (UniProt Q16620); experiment: TrkB (h) Millipore kinase activity assay; details: Compound concentration 1.0 uM
Mus musculus = organism: Mus musculus; experiment: Inhibition of Interleukin IL-1 at 10 µM in the Eurofins-Panlabs radioligand binding assay (Eurofins_assay_243520); parameters: ligand concentration 0.1 nM; details: Compound concentration 10.0 uM
[39] = molecular target: Endothelin receptor type B (Homo sapiens) (UniProt P24530); details: Compound concentration 10.0 uM
[40] = molecular target: Histamine H3 receptor (Homo sapiens) (UniProt Q9Y5N1); details: Compound concentration 10.0 uM
Histamine H3 receptor (Homo sapiens), sequence (Q9Y5N1 whole entry): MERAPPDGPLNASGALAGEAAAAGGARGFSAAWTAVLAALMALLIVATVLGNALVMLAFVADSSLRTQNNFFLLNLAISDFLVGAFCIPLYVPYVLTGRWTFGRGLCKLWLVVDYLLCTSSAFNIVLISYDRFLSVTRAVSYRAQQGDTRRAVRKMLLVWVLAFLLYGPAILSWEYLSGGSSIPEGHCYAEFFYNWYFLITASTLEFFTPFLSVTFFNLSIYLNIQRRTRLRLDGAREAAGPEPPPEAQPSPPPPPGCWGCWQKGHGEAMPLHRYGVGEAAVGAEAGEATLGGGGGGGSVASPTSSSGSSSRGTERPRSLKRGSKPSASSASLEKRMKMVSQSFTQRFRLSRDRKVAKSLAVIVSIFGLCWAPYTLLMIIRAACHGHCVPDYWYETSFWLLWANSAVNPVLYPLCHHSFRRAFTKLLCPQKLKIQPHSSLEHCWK

High affinity nerve growth factor receptor (Homo sapiens), sequence (P04629 33-796 limits assumed): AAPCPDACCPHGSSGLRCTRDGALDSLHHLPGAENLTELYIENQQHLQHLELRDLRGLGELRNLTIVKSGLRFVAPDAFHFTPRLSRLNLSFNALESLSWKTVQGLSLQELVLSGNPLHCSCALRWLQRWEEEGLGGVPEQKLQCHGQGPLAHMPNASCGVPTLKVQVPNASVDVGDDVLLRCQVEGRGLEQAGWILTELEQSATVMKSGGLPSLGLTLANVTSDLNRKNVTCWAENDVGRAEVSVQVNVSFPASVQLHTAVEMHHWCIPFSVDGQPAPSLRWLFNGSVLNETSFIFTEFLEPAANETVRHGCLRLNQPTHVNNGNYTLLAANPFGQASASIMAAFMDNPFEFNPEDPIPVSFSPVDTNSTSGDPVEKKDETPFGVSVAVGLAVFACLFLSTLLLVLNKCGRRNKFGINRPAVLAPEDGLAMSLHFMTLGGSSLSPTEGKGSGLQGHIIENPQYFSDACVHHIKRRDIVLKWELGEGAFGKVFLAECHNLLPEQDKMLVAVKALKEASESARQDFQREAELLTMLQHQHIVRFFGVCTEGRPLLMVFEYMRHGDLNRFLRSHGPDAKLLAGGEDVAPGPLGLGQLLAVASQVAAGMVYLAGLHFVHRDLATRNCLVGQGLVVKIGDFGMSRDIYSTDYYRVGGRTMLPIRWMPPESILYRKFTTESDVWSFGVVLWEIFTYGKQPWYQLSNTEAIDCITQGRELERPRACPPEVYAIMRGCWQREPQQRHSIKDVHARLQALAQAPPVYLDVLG
Phosphatidylinositol 4-phosphate 5-kinase type-1 alpha (Homo sapiens), sequence (Q99755 whole entry): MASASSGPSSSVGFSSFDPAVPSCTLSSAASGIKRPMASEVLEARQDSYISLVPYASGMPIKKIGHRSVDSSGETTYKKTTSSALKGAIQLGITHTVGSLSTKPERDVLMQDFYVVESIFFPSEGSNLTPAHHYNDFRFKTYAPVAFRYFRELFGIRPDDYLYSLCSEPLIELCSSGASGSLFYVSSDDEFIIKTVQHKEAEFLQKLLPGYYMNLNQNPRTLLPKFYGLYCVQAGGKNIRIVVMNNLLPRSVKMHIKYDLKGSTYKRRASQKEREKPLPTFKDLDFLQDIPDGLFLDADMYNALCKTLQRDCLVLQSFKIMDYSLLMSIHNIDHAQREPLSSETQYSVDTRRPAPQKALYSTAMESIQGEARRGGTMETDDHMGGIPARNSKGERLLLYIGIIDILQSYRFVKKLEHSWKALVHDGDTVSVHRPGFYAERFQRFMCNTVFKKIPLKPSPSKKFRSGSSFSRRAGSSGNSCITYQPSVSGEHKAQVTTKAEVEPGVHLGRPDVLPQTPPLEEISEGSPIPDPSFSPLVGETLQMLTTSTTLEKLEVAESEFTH
Dual specificity mitogen-activated protein kinase kinase 3 (Homo sapiens), sequence (P46734 whole entry): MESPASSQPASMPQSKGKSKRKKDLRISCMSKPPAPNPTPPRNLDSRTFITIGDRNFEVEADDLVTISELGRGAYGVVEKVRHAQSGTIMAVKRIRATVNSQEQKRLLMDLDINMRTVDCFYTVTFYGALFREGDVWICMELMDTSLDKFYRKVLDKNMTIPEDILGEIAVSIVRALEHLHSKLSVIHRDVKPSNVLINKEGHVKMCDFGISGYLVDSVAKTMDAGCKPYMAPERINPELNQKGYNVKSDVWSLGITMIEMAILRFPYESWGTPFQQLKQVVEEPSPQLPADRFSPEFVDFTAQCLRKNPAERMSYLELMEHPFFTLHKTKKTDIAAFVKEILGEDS
Endothelin receptor type B (Homo sapiens), sequence (P24530 whole entry): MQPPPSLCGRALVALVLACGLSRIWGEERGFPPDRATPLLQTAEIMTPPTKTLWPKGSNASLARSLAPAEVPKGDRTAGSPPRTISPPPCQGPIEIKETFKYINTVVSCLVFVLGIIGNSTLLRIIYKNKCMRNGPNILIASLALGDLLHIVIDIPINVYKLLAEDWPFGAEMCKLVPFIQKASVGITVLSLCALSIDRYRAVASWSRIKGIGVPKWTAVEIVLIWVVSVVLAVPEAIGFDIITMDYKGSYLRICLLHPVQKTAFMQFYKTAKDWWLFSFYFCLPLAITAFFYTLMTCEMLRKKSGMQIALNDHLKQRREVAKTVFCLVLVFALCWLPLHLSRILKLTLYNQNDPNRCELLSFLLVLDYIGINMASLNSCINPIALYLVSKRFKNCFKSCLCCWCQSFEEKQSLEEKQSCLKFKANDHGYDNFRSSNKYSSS
Beta-adrenergic receptor kinase 1 (Homo sapiens), sequence (P25098 whole entry): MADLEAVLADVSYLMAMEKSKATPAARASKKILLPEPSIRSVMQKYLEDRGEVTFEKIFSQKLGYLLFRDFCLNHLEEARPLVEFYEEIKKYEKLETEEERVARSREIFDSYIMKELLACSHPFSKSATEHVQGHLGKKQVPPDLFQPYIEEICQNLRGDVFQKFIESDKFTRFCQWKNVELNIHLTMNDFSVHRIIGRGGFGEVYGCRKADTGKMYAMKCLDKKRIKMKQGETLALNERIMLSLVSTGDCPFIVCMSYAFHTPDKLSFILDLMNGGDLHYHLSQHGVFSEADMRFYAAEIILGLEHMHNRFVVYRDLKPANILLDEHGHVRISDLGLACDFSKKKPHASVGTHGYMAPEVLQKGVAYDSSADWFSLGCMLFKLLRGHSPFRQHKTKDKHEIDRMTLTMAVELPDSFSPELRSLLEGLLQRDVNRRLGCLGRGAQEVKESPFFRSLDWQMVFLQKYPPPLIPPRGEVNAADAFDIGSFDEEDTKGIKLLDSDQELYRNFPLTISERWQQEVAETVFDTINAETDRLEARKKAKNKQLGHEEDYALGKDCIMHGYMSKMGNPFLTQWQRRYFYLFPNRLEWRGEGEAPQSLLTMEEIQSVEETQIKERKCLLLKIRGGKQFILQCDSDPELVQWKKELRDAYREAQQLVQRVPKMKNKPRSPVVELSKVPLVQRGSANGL
Mitotic checkpoint serine/threonine-protein kinase BUB1 (Homo sapiens), sequence (O43683 whole entry, looked up): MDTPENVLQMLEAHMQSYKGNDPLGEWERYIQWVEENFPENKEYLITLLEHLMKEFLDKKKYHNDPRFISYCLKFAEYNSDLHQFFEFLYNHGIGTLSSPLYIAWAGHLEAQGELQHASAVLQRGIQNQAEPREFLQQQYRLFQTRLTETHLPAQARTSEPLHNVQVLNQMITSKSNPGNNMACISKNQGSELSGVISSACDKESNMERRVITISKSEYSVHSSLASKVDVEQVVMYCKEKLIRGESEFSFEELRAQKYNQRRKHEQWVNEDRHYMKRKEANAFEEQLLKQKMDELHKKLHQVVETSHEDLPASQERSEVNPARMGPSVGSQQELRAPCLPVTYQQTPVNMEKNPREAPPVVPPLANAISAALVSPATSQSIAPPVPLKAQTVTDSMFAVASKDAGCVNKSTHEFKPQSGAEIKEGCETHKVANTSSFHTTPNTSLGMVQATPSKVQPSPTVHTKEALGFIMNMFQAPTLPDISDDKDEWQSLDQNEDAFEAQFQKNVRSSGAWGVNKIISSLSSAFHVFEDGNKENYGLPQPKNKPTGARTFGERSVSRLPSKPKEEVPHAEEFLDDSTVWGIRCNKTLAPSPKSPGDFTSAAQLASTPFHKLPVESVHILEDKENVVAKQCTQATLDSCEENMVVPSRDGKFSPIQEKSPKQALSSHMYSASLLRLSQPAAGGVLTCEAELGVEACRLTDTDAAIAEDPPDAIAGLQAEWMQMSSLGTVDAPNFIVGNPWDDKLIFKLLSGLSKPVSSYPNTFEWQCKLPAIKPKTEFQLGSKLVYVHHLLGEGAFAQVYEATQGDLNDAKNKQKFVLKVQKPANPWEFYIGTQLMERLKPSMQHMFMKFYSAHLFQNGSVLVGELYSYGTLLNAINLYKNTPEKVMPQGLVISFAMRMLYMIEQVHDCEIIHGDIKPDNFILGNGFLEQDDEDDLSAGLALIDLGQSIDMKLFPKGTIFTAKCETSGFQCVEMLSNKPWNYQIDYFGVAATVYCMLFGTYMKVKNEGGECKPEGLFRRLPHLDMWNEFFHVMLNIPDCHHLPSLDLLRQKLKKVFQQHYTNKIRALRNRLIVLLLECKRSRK
5-hydroxytryptamine receptor 2C, sequence (P28335 whole entry): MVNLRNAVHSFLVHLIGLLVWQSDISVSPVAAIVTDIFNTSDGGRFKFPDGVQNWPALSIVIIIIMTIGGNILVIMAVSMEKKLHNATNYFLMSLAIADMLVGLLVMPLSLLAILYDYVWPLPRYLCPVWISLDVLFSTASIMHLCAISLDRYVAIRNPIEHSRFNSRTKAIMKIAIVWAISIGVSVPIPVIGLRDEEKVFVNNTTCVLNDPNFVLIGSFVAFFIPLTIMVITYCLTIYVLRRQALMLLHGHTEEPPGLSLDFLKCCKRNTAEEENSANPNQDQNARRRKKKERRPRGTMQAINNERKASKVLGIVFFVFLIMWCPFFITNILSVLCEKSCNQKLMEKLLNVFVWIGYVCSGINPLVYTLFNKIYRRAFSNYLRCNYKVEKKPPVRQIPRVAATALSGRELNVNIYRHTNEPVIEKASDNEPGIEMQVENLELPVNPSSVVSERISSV

In the case of `CC1=C(C#N)[C@@H](c2ccc3[nH]nc(C)c3c2)C(C#N)=C(c2ccc(Cl)cc2)N1` [BAY-827], the Ki [1] is reported as 10 µM, the residual activity [2] is reported as 100% and the residual activity [3] is reported as 100%. The residual activity [4] was 100%, the residual activity [5] was 100% and the residual activity [6] was 98.5%. The residual activity [7] was 82.1%, the residual activity [8] was 66.2% and the residual activity [9] was 100%. For the same compound, the residual activity [10] was 100%, the residual activity [11] was 100% and the residual activity [12] was 88.1%. For the same compound, the residual activity [13] was 72.2%, the residual activity [14] was 53.5% and the residual activity [15] was 100%. For the same compound, the residual activity [16] was 92.3%, the residual activity [17] was 87.2% and the residual activity [18] was 98.2%. The residual activity [19] was 100%, the residual activity [20] was 96.1% and the residual activity [21] was 100%. It also gave a residual activity [22] of 91.2%, a residual activity [23] of 77.4% and a residual activity [24] of 100%. For the same compound, the residual activity [25] was 100%, the residual activity [26] was 76.4% and the residual activity [27] was 100%. For the same compound, the inhibition [28] was 4.53% and the inhibition [29] was 8.56%.

In the case of `CC1=C(C#N)C(c2ccc3[nH]nc(C)c3c2)C(C#N)=C(C)N1` [BAY-474], the inhibition [30] is reported as 0%, the inhibition [31] is reported as 3% and the inhibition [32] is reported as -5%. For the same compound, the inhibition [33] was -4%, the inhibition [34] was -3% and the inhibition [35] was -5%. For the same compound, the inhibition [36] was 2%, the inhibition [37] was 27% and the inhibition [38] was -2%. It also gave an inhibition (Mus musculus) of 0%, an inhibition [39] of 18% and an inhibition [40] of -6%.
